In patent US9060946B2, “Topical skin care formulations” (priority 2013, dated 2015):

Legend:
[1] = background; without the whiteness-preserving ingredients; cited from earlier work
[2] = system: skin; details: known sunless tanning ingredients; acts on dead skin cells; cited from earlier work
[3] = system: skin; assay: Tanning of the skin after topical application; assay type: in vivo
Description: The tan will appear once it reaches the skin's cellular level whether a person is in the light or in total darkness.
The tanning process will continue, in the sun, in the shade, or total darkness, regardless of the environmental conditions. […] Also, the tan can be maintained for longer periods of time by daily use of a maintenance formula containing 3 wt % CoQ10 and 3 wt % vanillin in a lime emulsion.

Row | SMILES | color behaviour in aqueous emulsion products [1] | how long the tan color lasts [2] | tanning / color development continues for up to [3]
1 | COC1=C(OC)C(=O)C(C/C=C(\C)CC/C=C(\C)CC/C=C(\C)CC/C=C(\C)CC/C=C(\C)CC/C=C(\C)CC/C=C(\C)CC/C=C(\C)CC/C=C(\C)CCC=C(C)C)=C(C)C1=O [CoQ10, coenzyme Q10] | degrades the formulation into various shades of orange or brown |  | 
2 | O=C(CO)[C@H](O)CO [erythrulose, D-erythrulose] |  | only a few days | 
3 | COc1cc(C=O)ccc1O [vanillin] | quickly degrades into various shades of brown |  | up to 24 hours
